# Measurements published in ChEMBL document CHEMBL1201862, “PubChem BioAssay data set” (2004).
# Active and inactive are the calls of the source.
# What was measured:
# Cytochrome P450 2C19 = Cytochrome P450 2C19 (Homo sapiens, UniProt P33261); experiment: Cytochrome panel assay with activity outcomes. Panel member name: p450-cyp2c19 Compounds with AC50 equal or less than 10 uM are considered active; assay type: functional; conditions: read-out: AC50
# Cytochrome P450 3A4 = Cytochrome P450 3A4 (Homo sapiens, UniProt P08684);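 further: CYP3A4 tested as one member of a cytochrome P450 panel screen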
# [1] = target: T1, Heat shock factor protein 1 (Mus musculus, UniProt P38532); experiment: enhancement of HSF1-driven luciferase signal – cell-based, NIH3T3, luminescence, dose retest, confirmation (AID 435004); assay type: functional;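 further: stress induced by proteasome inhibitor MG132 added 30 min after compound; luciferase reporter driven by HSF1 response element in NIH3T3 cells; actives raise luminescence as potentiators of the MG132 stress response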
# T1 sequence (P38532 whole entry): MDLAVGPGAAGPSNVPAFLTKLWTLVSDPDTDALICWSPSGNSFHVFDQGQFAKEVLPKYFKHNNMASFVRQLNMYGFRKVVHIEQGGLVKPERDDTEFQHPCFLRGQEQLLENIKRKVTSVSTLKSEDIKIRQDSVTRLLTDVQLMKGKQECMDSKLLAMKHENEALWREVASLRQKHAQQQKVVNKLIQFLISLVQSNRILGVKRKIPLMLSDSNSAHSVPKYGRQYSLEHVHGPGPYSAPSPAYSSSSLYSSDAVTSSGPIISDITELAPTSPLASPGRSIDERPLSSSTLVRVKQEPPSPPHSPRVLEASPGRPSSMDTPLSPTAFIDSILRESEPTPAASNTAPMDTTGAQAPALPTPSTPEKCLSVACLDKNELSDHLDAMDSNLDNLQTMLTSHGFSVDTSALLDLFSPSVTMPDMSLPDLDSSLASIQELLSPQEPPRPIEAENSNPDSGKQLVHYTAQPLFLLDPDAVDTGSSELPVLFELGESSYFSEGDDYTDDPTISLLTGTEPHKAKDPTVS
# Cytochrome P450 2C9 = Cytochrome P450 2C9 (Homo sapiens, UniProt P11712)
# [2] = target: T2, Corticotropin-releasing factor receptor 2/Corticotropin-releasing factor-binding protein (Homo sapiens, UniProt P24387+Q13324); experiment: Dose Response confirmation of uHTS hits for small molecule antagonists of the CRF-binding protein and CRF-R2 receptor complex.; assay type: functional; conditions: read-out: IC50_Mean
# T2 sequence (Q13324 whole entry): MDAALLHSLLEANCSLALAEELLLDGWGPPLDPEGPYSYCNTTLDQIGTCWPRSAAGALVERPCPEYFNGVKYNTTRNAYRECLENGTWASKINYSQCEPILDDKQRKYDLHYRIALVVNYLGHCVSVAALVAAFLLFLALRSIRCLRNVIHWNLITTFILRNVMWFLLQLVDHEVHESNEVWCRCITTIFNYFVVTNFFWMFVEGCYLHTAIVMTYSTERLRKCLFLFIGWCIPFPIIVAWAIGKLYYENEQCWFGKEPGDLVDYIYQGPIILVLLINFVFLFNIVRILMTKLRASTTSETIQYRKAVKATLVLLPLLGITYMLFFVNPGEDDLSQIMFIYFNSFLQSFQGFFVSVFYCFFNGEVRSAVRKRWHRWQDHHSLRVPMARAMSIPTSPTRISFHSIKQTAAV
# T2 sequence (P24387 whole entry): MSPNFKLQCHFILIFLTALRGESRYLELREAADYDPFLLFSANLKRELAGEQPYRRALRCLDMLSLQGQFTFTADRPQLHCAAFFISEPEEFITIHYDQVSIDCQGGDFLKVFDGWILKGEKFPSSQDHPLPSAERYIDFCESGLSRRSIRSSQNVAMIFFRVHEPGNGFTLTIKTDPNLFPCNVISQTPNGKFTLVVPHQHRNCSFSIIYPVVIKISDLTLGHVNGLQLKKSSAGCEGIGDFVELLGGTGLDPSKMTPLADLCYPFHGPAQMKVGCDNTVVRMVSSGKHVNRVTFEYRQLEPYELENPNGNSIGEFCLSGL
# [3] = target: T2, Corticotropin-releasing factor receptor 2/Corticotropin-releasing factor-binding protein; experiment: activators of CRF receptor 2 with binding protein – uHTS hits, confirmation (AID 602473); assay type: functional; conditions: read-out: EC50_Mean
# Cytochrome P450 1A2 = target: T3, Cytochrome P450 1A2 (Homo sapiens, UniProt P05177);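 further: PubChem cytochrome P450 panel assay, CYP1A2 panel member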
# T3 sequence (P05177 whole entry): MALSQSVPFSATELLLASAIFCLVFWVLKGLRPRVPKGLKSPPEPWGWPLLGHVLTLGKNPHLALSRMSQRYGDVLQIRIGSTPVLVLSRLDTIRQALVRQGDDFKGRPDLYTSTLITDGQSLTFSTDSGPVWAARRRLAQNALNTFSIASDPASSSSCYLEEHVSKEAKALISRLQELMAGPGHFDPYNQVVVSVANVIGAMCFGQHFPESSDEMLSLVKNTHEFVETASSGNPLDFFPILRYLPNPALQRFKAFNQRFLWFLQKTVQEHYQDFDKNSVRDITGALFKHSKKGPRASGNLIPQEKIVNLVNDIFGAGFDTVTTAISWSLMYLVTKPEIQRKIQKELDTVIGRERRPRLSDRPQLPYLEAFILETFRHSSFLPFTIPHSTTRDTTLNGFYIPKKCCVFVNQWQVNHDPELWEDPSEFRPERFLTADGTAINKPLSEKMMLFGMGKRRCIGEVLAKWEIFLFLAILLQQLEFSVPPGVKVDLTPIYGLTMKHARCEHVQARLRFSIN
# [4] = Luminescence Cell-Based Dose Response HTS to Identify Activators of Luciferase Translation or Activity in H4 […] Cells. [Related pubchem assays: 1829 (Project Summary), 1814 (Primary HTS)]; assay type: functional
# INS1 = experiment: INS-1E survival protection against cytokine death – cell-based, luminescence, retest, dose response (AID 449756); assay type: functional; conditions: Rattus norvegicus;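 further: cell death triggered by IL-1 beta plus TNF-alpha plus IFN-gamma mixture; protective hits raise ATP signal compared with cytokine alone wells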
# [5] = viability of uninfected HEp-2 cells – cell-based, HTS, cytotoxicity control for RSV inhibitor project, dose response (AID 2410); assay type: functional; conditions: human respiratory syncytial virus
# [6] = Luminescence Cell-Based Dose Retest to Confirm Inhibitors of Cancer Stem Cells. [Related pubchem assays (depositor defined):AID2717, AID2721]; assay type: functional; conditions: Homo sapiens
# [7] = luciferase reporter signal suppression in cells – H4 neuroglioma cells, luminescence, dose response (AID 1990); assay type: functional, cell-based
# [8] = Luminescence Cell-Based Dose Response HTS to Identify Inhibitors of 5'UTR Stem-Loop Driven Prion Protein mRNA Translation in H4 Neuroglioblastoma Cells. [Related pubchem assays: 1827 (Project Summary), 1813 (Primary HTS)]; assay type: functional
# [9] = alpha-synuclein stem-loop luciferase translation blockers – H4 neuroglioma cells, luminescence, confirmation (AID 1988); assay type: functional, cell-based
# [10] = Trypanosoma cruzi growth suppression in host cells – NIH3T3 host cells, beta-gal luminescence, confirmation (AID 2044); assay type: functional, cell-based;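 further: intracellular parasites grown in NIH/3T3 mouse fibroblasts as host cells; luminescent beta-galactosidase reporter signal from transgenic T. cruzi replicating inside host cells; inhibitors lower the luminescence signal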
# [11] = NIH3T3 cell viability loss – ATP luminescence, mouse fibroblasts, counter-screen, dose response (AID 2010); assay type: functional, cell-based;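 further: cells exposed to compound for about 90 hours before reading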
# Chain of Cytochrome P450 2C9 (P11712 whole entry): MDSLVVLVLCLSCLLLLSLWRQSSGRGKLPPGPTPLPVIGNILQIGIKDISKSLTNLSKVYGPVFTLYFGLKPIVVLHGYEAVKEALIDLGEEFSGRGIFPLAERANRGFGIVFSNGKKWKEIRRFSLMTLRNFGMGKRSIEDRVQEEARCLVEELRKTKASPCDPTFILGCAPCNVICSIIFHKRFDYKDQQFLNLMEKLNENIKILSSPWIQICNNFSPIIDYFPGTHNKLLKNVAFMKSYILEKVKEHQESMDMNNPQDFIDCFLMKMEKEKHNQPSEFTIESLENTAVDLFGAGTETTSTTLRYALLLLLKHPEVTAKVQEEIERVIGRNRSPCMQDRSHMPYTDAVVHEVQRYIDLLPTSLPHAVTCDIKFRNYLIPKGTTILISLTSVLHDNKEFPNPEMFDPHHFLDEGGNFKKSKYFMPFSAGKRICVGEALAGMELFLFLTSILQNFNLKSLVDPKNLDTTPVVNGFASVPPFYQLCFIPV
# Chain of Cytochrome P450 3A4 (P08684 whole entry): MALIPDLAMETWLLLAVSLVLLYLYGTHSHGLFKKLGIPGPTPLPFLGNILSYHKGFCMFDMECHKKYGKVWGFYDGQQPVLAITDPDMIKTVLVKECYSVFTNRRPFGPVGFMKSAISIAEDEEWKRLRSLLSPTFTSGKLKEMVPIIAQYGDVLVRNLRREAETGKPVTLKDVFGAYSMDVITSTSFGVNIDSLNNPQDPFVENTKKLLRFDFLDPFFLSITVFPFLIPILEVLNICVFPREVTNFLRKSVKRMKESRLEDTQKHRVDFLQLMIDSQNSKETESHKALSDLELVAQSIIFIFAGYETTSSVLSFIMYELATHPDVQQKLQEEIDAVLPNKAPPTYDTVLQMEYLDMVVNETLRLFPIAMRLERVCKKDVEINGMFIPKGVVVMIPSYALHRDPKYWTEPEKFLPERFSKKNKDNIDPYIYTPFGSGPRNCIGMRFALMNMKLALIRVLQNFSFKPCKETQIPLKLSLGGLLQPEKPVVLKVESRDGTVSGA
# Chain of Cytochrome P450 2C19 (P33261 whole entry): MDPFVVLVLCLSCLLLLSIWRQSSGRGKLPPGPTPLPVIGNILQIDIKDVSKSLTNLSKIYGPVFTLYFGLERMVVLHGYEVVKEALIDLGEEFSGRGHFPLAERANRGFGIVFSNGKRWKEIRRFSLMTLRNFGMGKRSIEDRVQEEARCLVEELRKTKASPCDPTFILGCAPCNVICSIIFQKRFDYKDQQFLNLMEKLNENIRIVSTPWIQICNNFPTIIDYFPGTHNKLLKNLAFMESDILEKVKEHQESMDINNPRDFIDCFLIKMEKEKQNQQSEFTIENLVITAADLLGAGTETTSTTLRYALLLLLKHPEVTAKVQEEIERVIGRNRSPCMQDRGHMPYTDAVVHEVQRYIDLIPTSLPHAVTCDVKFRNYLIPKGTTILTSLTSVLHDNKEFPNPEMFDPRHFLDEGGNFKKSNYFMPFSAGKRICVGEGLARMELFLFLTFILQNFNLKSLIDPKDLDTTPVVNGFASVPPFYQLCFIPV
smiles,measurement,setting,value
CCCn1nc(NC(=O)CC(C)C)c2cc3ccccc3nc21,AC50,Cytochrome P450 2C19,7.94 µM (inconclusive)
same,AC50,Cytochrome P450 3A4,3.16 µM (inconclusive)
COCCOC(=O)C1=C(C)N=C(C)/C(=C(/O)OCCOC)C1/C=C/c1ccccc1OC (stereo unspecified),EC50,[1],45.7 µM (active)
COc1ccc(Cl)cc1NC(=O)CCc1nc(-c2ccccc2F)no1,EC50,[1],> 260 µM (inactive)
N=c1sc2ccccc2n1CC[S-].c1ccc2c(c1)sc1[n+]2CCS1,AC50,Cytochrome P450 3A4,3.16 µM (inconclusive)
same,AC50,Cytochrome P450 2C9,1.58 µM (inconclusive)
COc1ccc(NC(=O)Nc2ccc3c(c2)OCO3)c(C)c1,IC50,[2],> 47.1 µM (inactive)
same,EC50,[3],> 53 µM (inactive)
COc1ccc(N2CCN(C(=O)CSc3nnc4c5cc(C)ccc5n(C)c4n3)CC2)cc1,AC50,Cytochrome P450 1A2,5.62 µM (inconclusive)
same,AC50,Cytochrome P450 3A4,1.12 µM (inconclusive)
same,AC50,Cytochrome P450 2C9,2.51 µM (inconclusive)
Cc1cc(NC(=O)Cn2cnc3sc(C)c(-c4ccccc4)c3c2=O)no1,EC50,[1],> 260 µM (inactive)
COc1ccccc1CC(=O)O/N=C(\N)c1cccc([N+](=O)[O-])c1,AC50,Cytochrome P450 2C19,20 µM (inconclusive)
same,AC50,Cytochrome P450 1A2,25.1 µM (inconclusive)
same,AC50,Cytochrome P450 3A4,31.6 µM (inconclusive)
same,AC50,Cytochrome P450 2C9,22.4 µM (inconclusive)
O=C(CCCN1CCC2(CC1)C(=O)N(Cc1cccc(F)c1)CN2c1ccccc1)c1ccc(F)cc1,AC50,Cytochrome P450 2C19,7.94 µM (inconclusive)
same,AC50,Cytochrome P450 1A2,39.8 µM (inconclusive)
same,AC50,Cytochrome P450 3A4,31.6 µM (inconclusive)
Cc1nnc(NC(=O)C2CCCN(c3ncccn3)C2)s1 (stereo unspecified),IC50,[2],> 47.1 µM (inactive)
same,EC50,[3],> 53 µM (inactive)
Cc1c2cnn(CC(=O)NC3CCCC3)c(=O)c2c(C)n1Cc1ccccc1,EC50,[4],51.2 µM (active)
same,IC50,[2],> 47.1 µM (inactive)
same,EC50,[3],> 53 µM (inactive)
N=c1c2c(ncn1CCCO)Oc1ccc3ccccc3c1C2c1ccccc1 (stereo unspecified),AC50,INS1,24.4 µM (active)
Cc1ccc(OCCOC(=O)Cn2nc(C)c([N+](=O)[O-])c2C)cc1,IC50,[2],> 47.1 µM (inactive)
same,EC50,[3],> 53 µM (inactive)
COCCn1c(=O)c(-c2ccc(Cl)cc2)nc2cnc(Oc3ccccc3)nc21,AC50,Cytochrome P450 2C19,39.8 µM (inconclusive)
same,AC50,Cytochrome P450 3A4,25.1 µM (inconclusive)
CN(CC1CCCO1)S(=O)(=O)c1ccc(C(=O)Nc2nc(-c3ccccn3)cs2)cc1 (stereo unspecified),AC50,INS1,2.42 µM (active)
Cc1nnc(NC(=O)c2oc3c(ccc4ccccc43)c2C)s1,AC50,Cytochrome P450 3A4,12.6 µM (inconclusive)
same,AC50,Cytochrome P450 2C9,17.8 µM (inconclusive)
CCc1ccc(-c2cc(C(F)(F)F)n3nc(C(=O)Nc4cnn(Cc5ccccc5C)c4)cc3n2)s1,AC50,Cytochrome P450 3A4,3.16 µM (inconclusive)
Cc1cccc(Cn2cc(/C=C/[N+](=O)[O-])c3ccccc32)c1,CC50,[5],12.7 µM (active)
same,AC50,[6],3.7 µM (active)
Cc1cc(C)nc(OC(=O)c2ccc(Cl)cc2Cl)n1,EC50,[7],11.4 µM (active)
same,EC50,[8],> 120 µM (not active)
same,EC50,[9],10.9 µM (active)
same,AC50,INS1,84.3 µM (active)
CCN(CCCNC(=O)COc1cc(=O)n(C)c2ccccc12)c1cccc(C)c1,EC50,[1],> 260 µM (inactive)
O=C(CSc1nnc2c(Cl)cc(C(F)(F)F)cn12)N(Cc1ccccc1)Cc1ccccc1,EC50,[1],> 260 µM (inactive)
CSc1ccc(CNc2ccccc2)cc1,AC50,Cytochrome P450 3A4,35.5 µM (inconclusive)
Cc1ccccc1Cn1nc(C)c(NC(=O)C2c3ccccc3Oc3ccccc32)c1C,EC50,[1],> 260 µM (inactive)
O=C(NC(=S)NCCc1ccccn1)c1ccco1,IC50,[2],> 47.1 µM (inactive)
same,EC50,[3],> 53 µM (inactive)
Cc1cc(O)c(C2(O)C(=O)Nc3cc(Br)ccc32)cc1C (stereo unspecified),IC50,[2],> 47.1 µM (inactive)
same,EC50,[3],> 53 µM (inactive)
COc1ccc(C2Nc3ccccc3C(=O)N2NS(=O)(=O)c2ccc(C)cc2)cc1 (stereo unspecified),EC50,[1],> 260 µM (inactive)
CC(C)(C)CC(C)(C)c1ccc(OCOCCOCCO)c(Cc2cc(C(C)(C)CC(C)(C)C)cc(Cc3cc(C(C)(C)CC(C)(C)C)ccc3OCOCCOCCO)c2OCOCCOCCO)c1,AC50,Cytochrome P450 3A4,12.6 µM (inconclusive)
O=C([O-])c1cc(-c2ccccc2)cc(-c2ccccc2)[n+]1Cc1ccccc1,AC50,INS1,1.96 µM (active)
O=C(O)CCn1[nH]c(=O)ccc1=O,EC50,[1],> 260 µM (inactive)
Cc1[nH]c2c(ccc3ccccc32)c1C1C(CCN)C1(C)C (stereo unspecified),EC50,[10],2.56 µM (active)
same,EC50,[11],13.2 µM (active)
same,AC50,INS1,15.1 µM (active)
COc1ccccc1NC(=O)Nc1nnc(-c2ccco2)s1,AC50,Cytochrome P450 3A4,17.8 µM (inconclusive)
Cc1cccc(C)c1OCC(=O)Nc1oc(-c2ccccc2)c(-c2ccccc2)c1C#N,IC50,[2],> 47.1 µM (inactive)
same,EC50,[3],> 53 µM (inactive)
CCn1c(SC)nnc1C1CCCN(CC(=O)Nc2ccccc2N2CCOCC2)C1 (stereo unspecified),EC50,[1],> 260 µM (inactive)
CCC1CCC2(CC1)SCC(=O)N2c1ccccc1 (stereo unspecified),EC50,[1],> 260 µM (inactive)
CCCSc1nnc2n(N)c(=O)c3ccccc3n12,AC50,Cytochrome P450 3A4,28.2 µM (inconclusive)
COc1ccc(-n2ncc(C(C)NS(=O)(=O)c3cc(C)sc3C)c2C)cc1 (stereo unspecified),IC50,[2],> 47.1 µM (inactive)
same,EC50,[3],> 53 µM (inactive)
Cn1c(C(=O)NCCc2ccccc2)cc(=O)n(C)c1=O,IC50,[2],> 47.1 µM (inactive)
same,EC50,[3],> 53 µM (inactive)
C=CCN1C(=O)C(Cc2ccc(OCC)cc2)S/C1=N/c1ccc(C(=O)O)cc1 (stereo unspecified),EC50,[1],> 260 µM (inactive)
Cc1c(/N=C2\SCC(=O)N2/N=C\c2ccc(Br)cc2)c(=O)n(-c2ccccc2)n1C,EC50,[1],> 260 µM (inactive)
Cc1ccc(N2C(=O)c3sc4nnc(C)c(=O)n4c3C2=O)cc1,IC50,[2],> 47.1 µM (inactive)
same,EC50,[3],> 53 µM (inactive)
CCCCCCCC/C=C\CCCCCCCC(N)=O [OLEAMIDE],AC50,Cytochrome P450 2C19,31.6 µM (inconclusive)
same,AC50,Cytochrome P450 3A4,50.1 µM (inconclusive)
COc1ccc2c(OC)c3ccoc3nc2c1OC [SKIMMIANINE],AC50,Cytochrome P450 3A4,7.94 µM (inconclusive)
